In brackets after ≈: the same amount, converted by molar mass.
Assays:
Assay type in all cases: functional
[1] = tested on: Mycobacterium tuberculosis; test: Antitubercular activity against multidrug resistant Mycobacterium tuberculosis isolate 1
[2] = tested on: Mycobacterium tuberculosis; test: Antitubercular activity against multidrug resistant Mycobacterium tuberculosis isolate 2
[3] = tested on: Mycobacterium tuberculosis; test: Potency index, ratio of ciprofloxacin MIC to compound MIC for multidrug resistant Mycobacterium tuberculosis isolate 1
[4] = tested on: Mycobacterium tuberculosis; test: Potency index, ratio of isoniazid MIC to compound MIC for multidrug resistant Mycobacterium tuberculosis isolate 1
[5] = tested on: Mycobacterium tuberculosis; test: Potency index, ratio of rifampin MIC to compound MIC for multidrug resistant Mycobacterium tuberculosis isolate 1
[6] = tested on: Mycobacterium tuberculosis; test: Potency index, ratio of ciprofloxacin MIC to compound MIC for multidrug resistant Mycobacterium tuberculosis isolate 2
[7] = tested on: Mycobacterium tuberculosis; test: Potency index, ratio of isoniazid MIC to compound MIC for multidrug resistant Mycobacterium tuberculosis isolate 2
[8] = tested on: Mycobacterium tuberculosis; test: Potency index, ratio of rifampin MIC to compound MIC for multidrug resistant Mycobacterium tuberculosis isolate 2

Structure (SMILES) | MIC [1] | MIC [2] | further results
CCO/N=C1\C(=O)N(CCCCCCOc2ccc3oc(-c4ccc(OC)cc4)c(C(=O)OCC)c3c2)c2ccccc21 | 2.69 µg/mL (≈ 4.6 µM) | 3.86 µg/mL (≈ 6.6 µM) | 
NNC(=O)c1ccncc1 [ISONIAZID] | > 40 µg/mL | > 40 µg/mL | 
CCOC(=O)c1c(-c2ccc(OC)cc2)oc2ccc(OCCCN3C(=O)/C(=N\OC)c4ccccc43)cc12 | 0.16 µg/mL (≈ 0.303 µM) | 0.21 µg/mL (≈ 0.397 µM) | 
CCOC(=O)c1c(-c2ccc(F)cc2)oc2ccc(OCCCCCCN3C(=O)C(=O)c4cc(F)ccc43)cc12 | 5.89 µg/mL (≈ 10.8 µM) | 2.98 µg/mL (≈ 5.44 µM) | 
CCOC(=O)c1c(-c2ccc(OC)cc2)oc2ccc(OCCCN3C(=O)/C(=N\OC)c4cc(OC)ccc43)cc12 | 0.49 µg/mL (≈ 0.877 µM) | 0.29 µg/mL (≈ 0.519 µM) | 
CO[C@H]1/C=C/O[C@@]2(C)Oc3c(C)c(O)c4c(O)c(c(/C=N/N5CCN(C)CC5)c(O)c4c3C2=O)NC(=O)/C(C)=C\C=C\[C@H](C)[C@H](O)[C@@H](C)[C@@H](O)[C@@H](C)[C@H](OC(C)=O)[C@@H]1C [RIFAMPIN] | > 40 µg/mL | > 40 µg/mL | 
CCOC(=O)c1c(-c2ccc(OC)cc2)oc2ccc(OCCCCCN3C(=O)/C(=N\OC)c4cc(F)ccc43)cc12 | 3.46 µg/mL (≈ 6.02 µM) | 4.24 µg/mL (≈ 7.38 µM) | 
CCOC(=O)c1c(-c2ccc(OC)cc2)oc2ccc(OCCCCCCN3C(=O)/C(=N\OC)c4ccccc43)cc12 | 1.73 µg/mL (≈ 3.03 µM) | 1.87 µg/mL (≈ 3.28 µM) | 
CCOC(=O)c1c(-c2ccc(OC)cc2)oc2ccc(OCCCCN3C(=O)/C(=N\OC)c4ccccc43)cc12 | 0.062 µg/mL (≈ 0.114 µM) | 0.16 µg/mL (≈ 0.295 µM) | Ratio [3]: >=48; Ratio [4]: >=48; Ratio [5]: >=48; Ratio [6]: >=48; Ratio [7]: >=48; Ratio [8]: >=48
CCO/N=C1\C(=O)N(CCCCOc2ccc3oc(-c4ccc(OC)cc4)c(C(=O)OCC)c3c2)c2ccccc21 | 3.23 µg/mL (≈ 5.8 µM) | 3.42 µg/mL (≈ 6.14 µM) | 
CCOC(=O)c1c(-c2ccc(OC)cc2)oc2ccc(OCCCCCCN3C(=O)/C(=N\NC(N)=S)c4cc(F)ccc43)cc12 | 0.95 µg/mL (≈ 1.5 µM) | 0.9 µg/mL (≈ 1.42 µM) | 
CCO/N=C1\C(=O)N(CCCOc2ccc3oc(-c4ccc(OC)cc4)c(C(=O)OCC)c3c2)c2ccccc21 | 4.25 µg/mL (≈ 7.83 µM) | 5.88 µg/mL (≈ 10.8 µM) | 
CCOC(=O)c1c(-c2ccccc2)oc2ccc(OCCCN3C(=O)/C(=N\OC)c4cc(OC)ccc43)cc12 | 0.21 µg/mL (≈ 0.397 µM) | 0.27 µg/mL (≈ 0.511 µM) | 
CCOC(=O)c1c(-c2ccc(OC)cc2)oc2ccc(OCCCCCCN3C(=O)/C(=N\NC(N)=S)c4ccccc43)cc12 | 0.47 µg/mL (≈ 0.765 µM) | 0.48 µg/mL (≈ 0.781 µM) | 
O=C(O)c1cn(C2CC2)c2cc(N3CCNCC3)c(F)cc2c1=O [CIPROFLOXACIN] | 0.39 µg/mL (≈ 1.18 µM) | 0.27 µg/mL (≈ 0.815 µM) | 
CNC(=O)c1c(-c2ccc(O)cc2)oc2ccc(O)c(CN3CCCCC3)c12 | < 0.016 µg/mL | < 0.016 µg/mL | 
CCOC(=O)c1c(-c2ccc(OC)cc2)oc2ccc(OCCCCCCN3C(=O)/C(=N\OC)c4cc(F)ccc43)cc12 | 2.85 µg/mL (≈ 4.84 µM) | 3.56 µg/mL (≈ 6.05 µM) | 
CCO/N=C1\C(=O)N(CCCOc2ccc3oc(-c4ccc(OC)cc4)c(C(=O)OCC)c3c2)c2ccc(OC)cc21 | 2.24 µg/mL (≈ 3.91 µM) | 2.12 µg/mL (≈ 3.7 µM) | 
CCOC(=O)c1c(-c2ccc(OC)cc2)oc2ccc(OCCCCCCN3C(=O)C(=O)c4cc(F)ccc43)cc12 | 14.2 µg/mL (≈ 25.3 µM) | 12.9 µg/mL (≈ 23.1 µM) | 
CCOC(=O)c1c(-c2ccccc2)oc2ccc(OCCCN3C(=O)/C(=N\OC)c4ccccc43)cc12 | 0.94 µg/mL (≈ 1.89 µM) | 0.91 µg/mL (≈ 1.83 µM) | 
